We go through 17 compounds from patent publication US10472341B2, “Bicyclic tetrahydrothiazepine derivatives useful for the treatment of neoplastic and/or infectious diseases” (APEIRON BIOLOGICS AG, priority 2015, dated 2019).

Where two headings read alike, the source gives them in different places.

Test [1] relates to aCD3/aCD28-stimulated human PBMCs. As to the kind of experiment: Cytokine production in aCD3/aCD28 stimulated human PBMCs. The format is cell-based. Conditions: PBMC, 18 h. The method in brief:
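Ficoll-isolated human PBMCs at 1e6 cells/mL in X-Vivo15, stimulated with soluble anti-CD3/CD28 (OKT3 and 28.2, 1 μg/mL each) plus compound for 18 h at 37° C. Supernatant cytokines quantified by MSD or HTRF.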

For test [2], the system named is aCD3/aCD28-stimulated human CD4+-T-cells. In words: IL-2 production and activation markers in aCD3/aCD28 stimulated isolated human CD4+-T-cells. In kind it is cell-based. The conditions noted are these: IL-2 production at 3 μM compound. The method in brief:
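CD4+ T cells isolated from buffy-coat PBMCs by microbeads were plated in Xvivo medium (1.5*10^5 cells/well) and stimulated with anti-CD3/28 mAbs plus compound. IL-2 measured by ELISA in supernatants at 24 h or 48 h; CD25 and proliferation by flow cytometry, CD69 at 24 h. Activity classes based on IL-2 at 3 μM compound.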

The mark [3] stands for this setting: enhancement of IFN-γ production, read-out: Activity Class IFN-γ.
Setting [4] is: enhancement of IL-2 production, read-out: Activity Class IL-2.

As to `C=CCCNC(=O)c1ccc2c(c1)N(Cc1ccc(Cl)cc1)C(=O)[C@@H](N)CS2(=O)=O.Cl` [Example 84, (3R)-3-amino-N-(but-3-en-1-yl)-5-[(4-chlorophenyl)methyl]-1,1,4-trioxo-2,3,4,5-tetrahydro-1λ^6,5-benzothiazepine-7-carboxamide hydrochloride], the EC50 in test [1] (setting [3]) is less than 1580 nM; in test [1] (setting [4]), 1580 to 5010 nM. In addition, in test [2], the “Activity Class CD4+” value is “B (IL-2 production at 3 μM compound concentration between 2-10 ng/mL)”.

Consider `C[C@@H]1[C@H](N)C(=O)N(Cc2ccc(Cl)cc2)c2cc(C(=O)NCCCC(F)(F)F)ccc2S1(=O)=O.Cl` [Example 111, (2R,3R)-3-amino-5-[(4-chlorophenyl)methyl]-2-methyl-1,1,4-trioxo-N-(4,4,4-trifluorobutyl)-2,3,4,5-tetrahydro-1λ^6,5-benzothiazepine-7-carboxamide hydrochloride], for which the EC50 in test [1] (setting [3]) and in test [1] (setting [4]) was 1580 to 5010 nM each time. Further, the “Activity Class CD4+” value in test [2] is reported as “B (IL-2 production at 3 μM compound concentration between 2-10 ng/mL)”.

As for `CC(C)(O)CNC(=O)c1cc2c(cc1F)SC[C@H](N)C(=O)N2Cc1ccc(Cl)cc1` [Example 50, (3R)-3-amino-5-[(4-chlorophenyl)methyl]-8-fluoro-N-(2-hydroxy-2-methylpropyl)-4-oxo-2,3,4,5-tetrahydro-1,5-benzothiazepine-7-carboxamide], the results for the EC50 in test [1] (setting [3]) and in test [1] (setting [4]) were 1580 to 5010 nM and more than 5010 nM, respectively. Also, the “Activity Class CD4+” value in test [2] is “C (IL-2 production at 3 μM compound concentration between 2-fold increase as compared to mean IL-2 production of stimulated cells in the absence of compounds and <2 ng/mL)”.

Consider `Cl.N[C@H]1CS(=O)(=O)c2cc(F)c(C(=O)NC3CCC3)cc2N(Cc2ccc(Cl)cc2)C1=O` [Example 86, (3R)-3-amino-5-[(4-chlorophenyl)methyl]-N-cyclobutyl-8-fluoro-1,1,4-trioxo-2,3,4,5-tetrahydro-1λ^6,5-benzothiazepine-7-carboxamide hydrochloride], for which the EC50 is less than 1580 nM in test [1] (setting [3]) and 1580 to 5010 nM in test [1] (setting [4]). In addition, the “Activity Class CD4+” value in test [2] is “B (IL-2 production at 3 μM compound concentration between 2-10 ng/mL)”.

Turning to `Cl.N[C@H]1CS(=O)(=O)c2cc(F)c(C(=O)NC3CC(F)(F)C3)cc2N(Cc2ccc(Cl)cc2)C1=O` [Example 102, (3R)-3-amino-5-[(4-chlorophenyl)methyl]-N-(3,3-difluorocyclobutyl)-8-fluoro-1,1,4-trioxo-2,3,4,5-tetrahydro-1λ^6,5-benzothiazepine-7-carboxamide hydrochloride], the EC50 in test [1] (setting [3]) and in test [1] (setting [4]) was less than 1580 nM each time. In addition, in test [2], the “Activity Class CD4+” value is listed as “A (IL-2 production at 3 μM compound concentration >10 ng/mL)”.

For the compound `CC1(NC(=O)c2cc3c(cc2F)S(=O)(=O)C[C@H](N)C(=O)N3Cc2ccc(Cl)cc2)CC1.Cl` [Example 99, (3R)-3-amino-5-[(4-chlorophenyl)methyl]-8-fluoro-N-(1-methylcyclopropyl)-1,1,4-trioxo-2,3,4,5-tetrahydro-1λ^6,5-benzothiazepine-7-carboxamide hydrochloride], the EC50 in test [1] (setting [3]) and in test [1] (setting [4]) was 1580 to 5010 nM each time. Further, the “Activity Class CD4+” value in test [2] is given as “B (IL-2 production at 3 μM compound concentration between 2-10 ng/mL)”.

Regarding `COc1ccc(CNC(=O)c2cc3c(cc2F)SC[C@H](N)C(=O)N3Cc2ccc(Cl)cc2)cc1.Cl` [Example 43, (3R)-3-amino-5-[(4-chlorophenyl)methyl]-8-fluoro-N-[(4-methoxyphenyl)methyl]-4-oxo-2,3,4,5-tetrahydro-1,5-benzothiazepine-7-carboxamide hydrochloride], the EC50 in test [1] (setting [3]) was less than 1580 nM; in test [1] (setting [4]), 1580 to 5010 nM. Besides, the “Activity Class CD4+” value in test [2] was “C (IL-2 production at 3 μM compound concentration between 2-fold increase as compared to mean IL-2 production of stimulated cells in the absence of compounds and <2 ng/mL)”.

`Cl.N[C@H]1CSc2ccc(C(=O)NCC3CCOCC3)cc2N(Cc2ccc(OC(F)(F)F)cc2)C1=O` [Example 30, (3R)-3-amino-N-(oxan-4-ylmethyl)-4-oxo-5-{[4-(trifluoromethoxy)phenyl]methyl}-2,3,4,5-tetrahydro-1,5-benzothiazepine-7-carboxamide hydrochloride]: the EC50 was more than 5010 nM in test [1] (setting [3]) and 1580 to 5010 nM in test [1] (setting [4]). Moreover, the “Activity Class CD4+” value in test [2] is on record as “B (IL-2 production at 3 μM compound concentration between 2-10 ng/mL)”.

On to `CC(C)CNNC(=O)c1cc2c(cc1F)SC[C@H](N)C(=O)N2Cc1ccc(Cl)cc1.Cl` [Example 60, (3R)-3-amino-5-[(4-chlorophenyl)methyl]-8-fluoro-N′-(2-methylpropyl)-4-oxo-2,3,4,5-tetrahydro-1,5-benzothiazepine-7-carbohydrazide hydrochloride], for which the EC50 in test [1] (setting [3]) is less than 1580 nM; in test [1] (setting [4]) it was 1580 to 5010 nM. Further, the “Activity Class CD4+” value in test [2] was “C (IL-2 production at 3 μM compound concentration between 2-fold increase as compared to mean IL-2 production of stimulated cells in the absence of compounds and <2 ng/mL)”.

For `CC1(C)CC1NC(=O)c1cc2c(cc1F)S(=O)(=O)C[C@H](N)C(=O)N2Cc1ccc(Cl)cc1.Cl` (stereo partly drawn) [Example 101, (3R)-3-amino-5-[(4-chlorophenyl)methyl]-N-(2,2-dimethylcyclopropyl)-8-fluoro-1,1,4-trioxo-2,3,4,5-tetrahydro-1λ^6,5-benzothiazepine-7-carboxamide hydrochloride], the results for the EC50 in test [1] (setting [3]) and in test [1] (setting [4]) were less than 1580 nM and 1580 to 5010 nM, respectively. Further, the “Activity Class CD4+” value in test [2] is given as “B (IL-2 production at 3 μM compound concentration between 2-10 ng/mL)”.

As for `CC(C)CONC(=O)c1cc2c(cc1F)S(=O)(=O)C[C@H](N)C(=O)N2Cc1ccc(Cl)cc1.Cl` [Example 75, (3R)-3-amino-5-[(4-chlorophenyl)methyl]-8-fluoro-N-(2-methylpropoxy)-1,1,4-trioxo-2,3,4,5-tetrahydro-1λ^6,5-benzothiazepine-7-carboxamide hydrochloride], the EC50 was 1580 to 5010 nM in test [1] (setting [3]) and more than 5010 nM in test [1] (setting [4]). Also, in test [2], the “Activity Class CD4+” value is reported as “B (IL-2 production at 3 μM compound concentration between 2-10 ng/mL)”.

With `CC(C)(C)NC(=O)c1cc2c(cc1F)S(=O)(=O)C[C@H](N)C(=O)N2Cc1ccc(Cl)cc1.Cl` [Example 96, (3R)-3-amino-N-tert-butyl-5-[(4-chlorophenyl)methyl]-8-fluoro-1,1,4-trioxo-2,3,4,5-tetrahydro-1λ^6,5-benzothiazepine-7-carboxamide hydrochloride], the EC50 in test [1] (setting [3]) and in test [1] (setting [4]) was less than 1580 nM each time. Also, the “Activity Class CD4+” value in test [2] is reported as “A (IL-2 production at 3 μM compound concentration >10 ng/mL)”.

Regarding `CC(C)CONC(=O)c1cc2c(cc1F)SC[C@H](N)C(=O)N2Cc1ccc(Cl)cc1.Cl` [Example 59, (3R)-3-amino-5-[(4-chlorophenyl)methyl]-8-fluoro-N-(2-methylpropoxy)-4-oxo-2,3,4,5-tetrahydro-1,5-benzothiazepine-7-carboxamide hydrochloride], the EC50 in test [1] (setting [3]) and in test [1] (setting [4]) was 1580 to 5010 nM each time. The “Activity Class CD4+” value in test [2] was “C (IL-2 production at 3 μM compound concentration between 2-fold increase as compared to mean IL-2 production of stimulated cells in the absence of compounds and <2 ng/mL)”.

Take `Cl.N[C@H]1CSc2ccc(C(=O)NCc3ccc(F)cc3)cc2N(Cc2ccc(C(F)(F)F)nc2)C1=O` [Example 37, (3R)-3-amino-N-[(4-fluorophenyl)methyl]-4-oxo-5-{[6-(trifluoromethyl)pyridin-3-yl]methyl}-2,3,4,5-tetrahydro-1,5-benzothiazepine-7-carboxamide hydrochloride]: the EC50 was more than 5010 nM in test [1] (setting [3]) and 1580 to 5010 nM in test [1] (setting [4]). Moreover, in test [2], the “Activity Class CD4+” value was “C (IL-2 production at 3 μM compound concentration between 2-fold increase as compared to mean IL-2 production of stimulated cells in the absence of compounds and <2 ng/mL)”.

Turning to `CCCCCCCCCCCCCCCCNC(=O)c1cc2c(cc1F)S(=O)(=O)C[C@H](N)C(=O)N2Cc1ccc(Cl)cc1.Cl` [Example 109, (3R)-3-amino-5-[(4-chlorophenyl)methyl]-8-fluoro-N-hexadecyl-1,1,4-trioxo-2,3,4,5-tetrahydro-1λ^6,5-benzothiazepine-7-carboxamide hydrochloride], the EC50 in test [1] (setting [3]) and in test [1] (setting [4]) was less than 1580 nM throughout. In test [2], the “Activity Class CD4+” value is “A (IL-2 production at 3 μM compound concentration >10 ng/mL)”.

Take `Cl.Cl.N[C@H]1CSc2ccc(C(=O)Nc3cccnc3)cc2N(Cc2ccc(OC(F)(F)F)cc2)C1=O` [Example 25, (3R)-3-amino-4-oxo-N-(pyridin-3-yl)-5-{[4-(trifluoromethoxy)phenyl]methyl}-2,3,4,5-tetrahydro-1,5-benzothiazepine-7-carboxamide dihydrochloride]: the EC50 in test [1] (setting [3]) is more than 5010 nM; in test [1] (setting [4]), 1580 to 5010 nM. For the same compound, in test [2], the “Activity Class CD4+” value is “C (IL-2 production at 3 μM compound concentration between 2-fold increase as compared to mean IL-2 production of stimulated cells in the absence of compounds and <2 ng/mL)”.

Turning to `CC(C)(C)C(=O)NCCCNC(=O)c1ccc2c(c1)N(Cc1ccc(OC(F)(F)F)cc1)C(=O)[C@@H](N)CS2.Cl` [Example 12, N-(3-{[(3R)-3-amino-4-oxo-5-{[4-(trifluoromethoxy)phenyl]methyl}-2,3,4,5-tetrahydro-1,5-benzothiazepin-7-yl]formamido}propyl)-2,2-dimethylpropanamide hydrochloride], the EC50 in test [1] (setting [3]) and in test [1] (setting [4]) was more than 5010 nM throughout. For the same compound, in test [2], the “Activity Class CD4+” value was “C (IL-2 production at 3 μM compound concentration between 2-fold increase as compared to mean IL-2 production of stimulated cells in the absence of compounds and <2 ng/mL)”.
